Results reported in ChEMBL document CHEMBL4699598, “Discovery of Novel Substituted N-(4-Amino-2-chlorophenyl)-5-chloro-2-hydroxybenzamide Analogues as Potent Human Adenovirus Inhibitors” (J Med Chem, 2020).

Assays:
[1] = Cytotoxicity against human A549 cells assessed as reduction in cell viability incubated for 48 hrs by alamarBlue assay; type: cell-based
[2] = Selectivity index, ratio of CC50 for cytotoxicity against human A549 cells assessed as reduction in cell viability incubated for 48 hrs by alamarBlue assay to IC50 for antiviral activity against Human adenovirus 5 infected in 293beta5 cells assessed as inhibition of plaque formation incubated for 7 days by GFP reporter gene assay; type: toxicity, cell-based; conditions: read-out: Ratio CC50/IC50
[3] = system: Human adenovirus 5; experiment: Antiviral activity against GFP-fused Human adenovirus 5 infected in 293beta5 cells assessed as inhibition of plaque formation incubated for 7 days by GFP reporter gene assay; type: functional, organism-based; conditions: Human mastadenovirus C, HEK293, 168 h
[4] = system: Human adenovirus 5; experiment: Antiviral activity against Human adenovirus 5 infected in 293beta5 cells assessed as inhibition of plaque formation at 10 uM incubated for 7 days by GFP reporter gene assay relative to control; type: functional; conditions: Human mastadenovirus C, HEK293, 168 h, time 7 day
[5] = system: Human adenovirus 5; experiment: Antiviral activity against Human adenovirus 5 infected in 293beta5 cells assessed as inhibition of virus infection at 10 fold IC50 measured after 60 mins by GFP reporter gene assay relative to control; type: functional, HEK293; conditions: 1 h
[6] = system: Human betaherpesvirus 5; experiment: Antiviral activity against human cytomegalovirus infected in HFF cells assessed as inhibition of viral replication by measuring number of DNA copies at 5 uM incubated for 72 hrs by RT-PCR analysis (reference value: 100 +/- 25.56 %); type: functional; design: scale not given: the % may be the effect or the level left
[7] = Toxicity against cyclophosphamide-immunosuppressed golden syrian hamster assessed as loss of body weight at 1 mg/kg, administered for 14 days; type: organism-based, Mesocricetus auratus; conditions: in vivo, 336 h, time 14 day
[8] = system: Human adenovirus 5; experiment: Antiviral activity against wild-type Human adenovirus 5 infected in human A549 cells assessed as inhibition of viral entry by measuring nuclear associated viral genome level at 10 fold IC50 incubated for 45 mins by RT-PCR analysis (reference value: 100 +/- 1.07 %); type: functional; design: scale not given: the % may be the effect or the level left; conditions: 0.75 h
[9] = system: Human adenovirus 5; experiment: Antiviral activity against WT-Human adenovirus 5 infected in A549 cells assessed as fold reduction in virus yield at 10 fold of IC50 after 48 hrs endpoint dilution method; type: functional
[10] = system: Human adenovirus 5; experiment: Antiviral activity against wild-type Human adenovirus 5 infected in human A549 cells assessed as inhibition of viral DNA replication by measuring number of viral DNA copies at 5 uM after 24 hrs by RT-qPCR analysis (reference value: 100 +/- 0.16 %); type: functional; design: scale not given: the % may be the effect or the level left

Compound | IC50 [3] | CC50 at 48 h [1] | selectivity ratio at 48 h [2] | inhibition at 10 µM [4] | also measured
CC(C)(C)OC(=O)NCCNc1ccc(NC(=O)c2cc(Cl)ccc2O)c(Cl)c1 | 2.78 µM | 25 µM | 9 | 100% | –
CN1CCC(CNc2ccc(NC(=O)c3cc(Cl)ccc3O)c(Cl)c2)CC1 | – | – | – | 0% | –
CCCNc1ccc(NC(=O)c2cc(Cl)ccc2O)c(Cl)c1 | 5.04 µM | 22.5 µM | 4.5 | 100% | –
CN(C)c1ccc(NC(=O)c2cc(Cl)ccc2O)c(Cl)c1 | 1.92 µM | 85.1 µM | 44.3 | 100% | –
O=C(Nc1ccc(N(CCCO)CCCO)cc1Cl)c1cc(Cl)ccc1O | – | 114 µM | – | – | –
O=C(Nc1ccc(NCc2cc(Cl)cc(C(F)(F)F)c2)cc1Cl)c1cc(Cl)ccc1O | 1.79 µM | 30.9 µM | 17.3 | – | –
O=C(Nc1ccc(NCc2ccc(C(F)(F)F)cc2)cc1Cl)c1cc(Cl)ccc1O | 1.43 µM | 62.7 µM | 43.8 | – | –
O=C(NCc1ccc(NC2CCCC2)cc1Cl)c1cc(Cl)ccc1O | 7.97 µM | 28.3 µM | 3.6 | – | –
CS(=O)(=O)Nc1ccc(Cl)cc1C(=O)Nc1ccc(NC2CCCC2)cc1Cl | 1.72 µM | 35.4 µM | 20.6 | – | –
CN(C)c1ccc(CNc2ccc(NC(=O)c3cc(Cl)ccc3O)c(Cl)c2)cc1 | 2.73 µM | 24.5 µM | 9 | 100% | –
O=C(Nc1ccc(NCc2cccc(Br)n2)cc1Cl)c1cc(Cl)ccc1O | 2.26 µM | 92.3 µM | 40.8 | 100% | –
O=C(Nc1ccc(NCc2cccnc2Cl)cc1Cl)c1cc(Cl)ccc1O | 4.78 µM | 100 µM | 21 | 100% | –
O=C(Nc1ccc(NCc2ccc(F)cc2)cc1Cl)c1cc(Cl)ccc1O | 3.4 µM | 54.4 µM | 16 | 100% | –
CCNc1ccc(NC(=O)c2cc(Cl)ccc2O)c(Cl)c1 | 2.18 µM | 30.2 µM | 13.9 | 100% | –
O=C(Nc1ccc(NCc2ccc(Br)cc2)cc1Cl)c1cc(Cl)ccc1O | 1.84 µM | 40.9 µM | 22.2 | 100% | –
CC(=O)Nc1ccc(NC(=O)c2cc(Cl)ccc2O)c(Cl)c1 | – | – | – | 0% | –

Compound | IC50 [3] | CC50 at 48 h [1] | selectivity ratio at 48 h [2] | inhibition at 10 µM [4] | also measured
COc1ccc(CNc2ccc(NC(=O)c3cc(Cl)ccc3O)c(Cl)c2)cc1 | 3.61 µM | 80.7 µM | 22.4 | 100% | –
O=C(Nc1ccc([N+](=O)[O-])cc1Cl)c1cc(Cl)ccc1O [NICLOSAMIDE] | 0.6 µM | – | – | 100% | inhibition (INH) [5]: >=50%; Activity [6]: 1.7%; Activity [7]: Non-Toxic
O=C(Nc1ccc(NCc2ccncc2)cc1Cl)c1cc(Cl)ccc1O | 2.66 µM | 65.3 µM | 24.6 | 100% | –
O=C(Nc1ccc(NCCCO)cc1Cl)c1cc(Cl)ccc1O | – | 106 µM | – | – | –
O=C(Nc1ccc(NC2CCCC2)cc1)c1cc(Cl)ccc1O | 2.6 µM | 10 µM | 3.9 | – | –
Nc1ccc(NC(=O)c2cc(Cl)ccc2O)c(Cl)c1 | – | – | – | 0% | –
O=C(Nc1ccc(NCc2ccc3cn[nH]c3c2)cc1Cl)c1cc(Cl)ccc1O | 4.65 µM | 45.3 µM | 9.7 | – | –
CN1CCC(Oc2ccc(Cl)cc2C(=O)Nc2ccc(NC3CCCC3)cc2Cl)CC1 | – | – | – | 0% | –
Cc1ccc(O)c(C(=O)Nc2ccc(NC3CCCC3)cc2Cl)c1 | 2.72 µM | 30.9 µM | 11.4 | – | –
CC(C)[C@H](NC(=O)c1cc(Cl)ccc1O)C(=O)Nc1ccc(NC2CCCC2)cc1Cl | 3.83 µM | 111 µM | 28.9 | – | –
O=C(Nc1ccc(NCc2ccccc2)cc1Cl)c1cc(Cl)ccc1O | 2.52 µM | 19.7 µM | 7.8 | 100% | –
O=C(Nc1ccc(NCc2cc(Cl)cc(Cl)c2)cc1Cl)c1cc(Cl)ccc1O | 1.43 µM | 13.3 µM | 9.3 | 100% | –
O=C(Nc1ccc(NCc2ccc(Br)s2)cc1Cl)c1cc(Cl)ccc1O | 2.58 µM | 20.7 µM | 8 | 100% | –
O=C(Nc1ccc(NCc2cnccc2Cl)cc1Cl)c1cc(Cl)ccc1O | 1.66 µM | 126 µM | 75.7 | 100% | –
O=C(Nc1ccc(NCC2CC2)cc1Cl)c1cc(Cl)ccc1O | 1.38 µM | 14.4 µM | 10.4 | 100% | –

Now from value to compound, other results behind:

IC50 [3] | Compound | CC50 at 48 h [1] | selectivity ratio at 48 h [2] | inhibition at 10 µM [4] | also measured
1.34 µM | O=C(Nc1ccc(NC2CCCCC2)cc1Cl)c1cc(Cl)ccc1O | 68.3 µM | 51.1 | – | –
0.89 µM | CC(C)CNc1ccc(NC(=O)c2cc(Cl)ccc2O)c(Cl)c1 | 60 µM | 67.4 | 100% | –
1.24 µM | O=C(Nc1ccc(NCC2CCCC2)cc1Cl)c1cc(Cl)ccc1O | 21.5 µM | 17.3 | 100% | –
1.21 µM | CC(C)(C)OC(=O)N1CCC(Nc2ccc(NC(=O)c3cc(Cl)ccc3O)c(Cl)c2)CC1 | 100 µM | 82.6 | – | –
1.12 µM | O=C(Nc1ccc(NCc2cc(C(F)(F)F)cc(C(F)(F)F)c2)cc1Cl)c1cc(Cl)ccc1O | 92.8 µM | 82.9 | 100% | –
1.34 µM | O=C(Nc1cc(NC2CCCC2)ccc1F)c1cc(Cl)ccc1O | 44 µM | 32.8 | – | –
0.88 µM | CC(C)Nc1ccc(NC(=O)c2cc(Cl)ccc2O)c(Cl)c1 | 11 µM | 12.5 | 100% | –
0.45 µM | CC(C)[C@H](NC(=O)c1cc(Cl)ccc1O)C(=O)Nc1ccc([N+](=O)[O-])cc1Cl | – | 444 | – | –
1.04 µM | O=C(Nc1ccc(NC2CCCC2)cc1F)c1cc(Cl)ccc1O | 51 µM | 49.1 | – | –
1.28 µM | O=C(Nc1ccc(NCc2cc(F)cc(Cl)c2)cc1Cl)c1cc(Cl)ccc1O | 11.1 µM | 8.7 | – | –
0.67 µM | CCCN(CCC)c1ccc(NC(=O)c2cc(Cl)ccc2O)c(Cl)c1 | 10.7 µM | 16 | 100% | –
0.5 µM | O=C(Nc1ccc(NC2CCCC2)cc1Cl)c1cc(Cl)ccc1O | 92.9 µM | 186 | 100% | Activity [8]: 98.84%; fold change (FC) [9]: 17.1; Activity [10]: 14.42%; inhibition (INH) [5]: >=50%; Activity [6]: 100%
0.84 µM | O=C(Nc1ccc(NC2CCCC2)c(Cl)c1)c1cc(Cl)ccc1O | 16.9 µM | 20.1 | 100% | –
1.2 µM | O=C(Nc1ccc(NCc2ccc(Cl)cc2)cc1Cl)c1cc(Cl)ccc1O | 59.7 µM | 49.7 | 100% | –
0.74 µM | CC1(ON(c2ccc(NC(=O)c3cc(Cl)ccc3O)c(Cl)c2)C2(C)CCCC2)CCCC1 | 18 µM | 24.3 | 100% | –
0.86 µM | CCN(CC)c1ccc(NC(=O)c2cc(Cl)ccc2O)c(Cl)c1 | 55.5 µM | 64.5 | 100% | –
0.62 µM | O=C(Nc1ccc(N(CC2CC2)CC2CC2)cc1Cl)c1cc(Cl)ccc1O | 12.8 µM | 20.7 | 100% | –
0.32 µM | CCCCCCC(C)Nc1ccc(NC(=O)c2cc(Cl)ccc2O)c(Cl)c1 (stereo not drawn) | 23.5 µM | 73.4 | 100% | –
1.21 µM | CCCCCCCCC(C)Nc1ccc(NC(=O)c2cc(Cl)ccc2O)c(Cl)c1 (stereo not drawn) | 21.9 µM | 18.1 | 100% | –
0.88 µM | O=C(Nc1ccc(NCc2cccc(C(F)(F)F)c2)cc1Cl)c1cc(Cl)ccc1O | 13.3 µM | 15.2 | 100% | –
1.16 µM | O=C(Nc1ccc(NCc2cc(F)cc(C(F)(F)F)c2)cc1Cl)c1cc(Cl)ccc1O | 30.9 µM | 26.7 | 100% | –
0.18 µM | O=C(Nc1cc(F)cc(C(F)(F)F)c1)c1cc(Cl)ccc1O | – | 667 | – | –
